Test [1] addresses T1, c-Met (cytoplasmic domain) (Homo sapiens, UniProt P08581).
T1 construct: 10 ng/mL c-Met (cytoplasmic domain, Invitrogen Corporation #PV3143); purchased Invitrogen Corporation PV3143
As to the kind of experiment: c-Met Kinase Assay (same methods as for ALK, with modifications). Particulars: c-Met kinase inhibition, 1 μM ATP; read-out: cMet Activity. Format: biochemical. The procedure, abridged: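 Steps: coat wells with PLC-γ (10 μg/mL, Tris-buffered saline); add 10 ng/mL c-Met cytoplasmic domain to initiate; incubate 15 min, 37° C; detect phosphoproduct via Eu-N1 PT66 antibody.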

In test [2] the target is T2, baculovirus-expressed ALK (Homo sapiens, UniProt Q9UM73).
T2 construct: host or cells: baculovirus expression system
T2 sequence (Q9UM73 19-1620): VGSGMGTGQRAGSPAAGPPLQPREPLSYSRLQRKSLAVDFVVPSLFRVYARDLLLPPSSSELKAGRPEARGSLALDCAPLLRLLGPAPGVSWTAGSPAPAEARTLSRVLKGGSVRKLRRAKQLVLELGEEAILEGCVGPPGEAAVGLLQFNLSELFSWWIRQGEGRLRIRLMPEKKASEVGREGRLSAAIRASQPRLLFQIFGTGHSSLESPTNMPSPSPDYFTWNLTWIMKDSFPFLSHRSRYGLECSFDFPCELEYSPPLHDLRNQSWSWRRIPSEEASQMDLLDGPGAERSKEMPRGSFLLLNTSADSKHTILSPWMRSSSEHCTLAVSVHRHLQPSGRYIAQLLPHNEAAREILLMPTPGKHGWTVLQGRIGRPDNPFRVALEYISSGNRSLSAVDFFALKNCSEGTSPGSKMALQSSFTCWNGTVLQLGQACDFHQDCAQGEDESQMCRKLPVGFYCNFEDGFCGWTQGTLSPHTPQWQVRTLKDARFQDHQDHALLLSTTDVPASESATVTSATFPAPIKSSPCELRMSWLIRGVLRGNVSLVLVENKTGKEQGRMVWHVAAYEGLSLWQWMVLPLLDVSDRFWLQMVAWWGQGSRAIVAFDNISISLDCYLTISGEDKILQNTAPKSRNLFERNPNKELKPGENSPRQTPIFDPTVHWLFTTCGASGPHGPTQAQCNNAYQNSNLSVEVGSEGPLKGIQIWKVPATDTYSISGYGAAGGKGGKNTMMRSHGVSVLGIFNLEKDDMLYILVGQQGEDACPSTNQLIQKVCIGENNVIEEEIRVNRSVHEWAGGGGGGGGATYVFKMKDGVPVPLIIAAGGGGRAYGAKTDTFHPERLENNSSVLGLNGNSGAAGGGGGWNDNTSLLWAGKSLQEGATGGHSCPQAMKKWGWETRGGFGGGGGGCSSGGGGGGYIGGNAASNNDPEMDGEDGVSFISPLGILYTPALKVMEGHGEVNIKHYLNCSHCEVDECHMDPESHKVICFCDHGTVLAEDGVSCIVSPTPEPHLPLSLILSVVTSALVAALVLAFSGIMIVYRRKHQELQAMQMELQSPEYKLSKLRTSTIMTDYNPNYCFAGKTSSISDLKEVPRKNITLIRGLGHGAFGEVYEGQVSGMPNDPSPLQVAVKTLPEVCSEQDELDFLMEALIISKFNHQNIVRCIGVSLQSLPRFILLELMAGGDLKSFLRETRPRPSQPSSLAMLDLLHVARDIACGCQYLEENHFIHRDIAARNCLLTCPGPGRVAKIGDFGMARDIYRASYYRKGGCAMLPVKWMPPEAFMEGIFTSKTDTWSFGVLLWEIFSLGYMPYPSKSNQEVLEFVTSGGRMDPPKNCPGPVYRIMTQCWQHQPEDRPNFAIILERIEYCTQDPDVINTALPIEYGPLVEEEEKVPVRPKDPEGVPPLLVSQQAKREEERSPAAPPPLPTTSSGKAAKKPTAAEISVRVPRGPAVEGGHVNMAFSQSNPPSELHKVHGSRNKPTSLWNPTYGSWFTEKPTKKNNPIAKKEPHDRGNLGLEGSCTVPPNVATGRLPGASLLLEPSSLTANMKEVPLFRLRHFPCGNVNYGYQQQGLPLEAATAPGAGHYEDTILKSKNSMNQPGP
As to the kind of experiment: ALK Kinase Assay (ELISA-type, time-resolved fluorescence). The test is classed as biochemical. The conditions noted are these: ALK kinase inhibition, 1 μM ATP; read-out: ALK Activity. Summed up: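 Wells were coated with phospholipase C-γ at 10 μg/mL in Tris-buffered saline. Adding 30 ng/ml enzyme started the reaction, which ran at 37° C for 15 minutes before Eu-N1 PT66 antibody detection. Percent inhibition versus log10 concentration gave IC50 by variable-slope fit.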
Background: ELISA stands for enzyme-linked immunosorbent assay.

T1 sequence (P08581 956-1390 limits assumed): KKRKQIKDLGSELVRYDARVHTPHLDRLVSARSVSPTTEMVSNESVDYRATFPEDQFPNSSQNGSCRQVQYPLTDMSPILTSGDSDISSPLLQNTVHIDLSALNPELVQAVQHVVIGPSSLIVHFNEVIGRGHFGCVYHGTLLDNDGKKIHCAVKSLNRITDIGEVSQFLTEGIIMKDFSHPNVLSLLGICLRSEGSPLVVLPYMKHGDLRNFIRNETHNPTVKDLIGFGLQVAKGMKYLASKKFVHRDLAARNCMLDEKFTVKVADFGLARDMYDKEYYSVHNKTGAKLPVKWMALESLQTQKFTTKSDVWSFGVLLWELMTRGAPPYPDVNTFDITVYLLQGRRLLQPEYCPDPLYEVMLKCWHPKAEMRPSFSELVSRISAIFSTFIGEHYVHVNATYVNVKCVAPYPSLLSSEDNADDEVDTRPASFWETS

On to `CNC(=O)c1sc(Cl)c(C)c1Nc1nc(Nc2ccc3c(c2)CCOC(=O)N3C)ncc1Cl` [Example 1770, 5-Chloro-3-[5-chloro-2-(5-methyl-6-oxo-5,6,8,9-tetrahydro-7-oxa-5-aza-benzocyclohepten-2-ylamino)-pyrimidin-4-ylamino]-4-methyl-thiophene-2-carboxylic acid methylamide], for which the figures for the IC50 in test [1] and in test [2] were less than 100 nM and 100 to 1000 nM, respectively.

On to `CNC(=O)c1sc(Br)c(C)c1Nc1nc(Nc2ccc3c(c2)CCOC(=O)N3C)ncc1Cl` [Example 1771, 5-Bromo-3-[5-chloro-2-(5-methyl-6-oxo-5,6,8,9-tetrahydro-7-oxa-5-aza-benzocyclohepten-2-ylamino)-pyrimidin-4-ylamino]-4-methyl-thiophene-2-carboxylic acid methylamide], for which the IC50 was less than 100 nM in test [1] and 100 to 1000 nM in test [2].

Turning to `CNC(=O)c1sc(C)c(C)c1Nc1nc(Nc2ccc3c(c2)CCOC(=O)N3C)ncc1Cl` [Example 1772, 5-Methyl-3-[5-chloro-2-(5-methyl-6-oxo-5,6,8,9-tetrahydro-7-oxa-5-aza-benzocyclohepten-2-ylamino)-pyrimidin-4-ylamino]-4-methyl-thiophene-2-carboxylic acid methylamide], the values for the IC50 in test [1] and in test [2] were less than 100 nM and 1000 to 10000 nM, respectively.

As for `CNC(=O)c1cccc(OC(F)(F)F)c1Nc1nc(Nc2ccc3c(c2)CCOC(=O)N3C)ncc1Cl` [Example 1773, 2-[5-Chloro-2-(5-methyl-6-oxo-5,6,8,9-tetrahydro-7-oxa-5-aza-benzocyclohepten-2-ylamino)-pyrimidin-4-ylamino]-N-methyl-3-trifluoromethoxy-benzamide], the IC50 in test [1] is 100 to 1000 nM; in test [2] it was more than 10000 nM.

In the case of `CNC(=O)c1c(Cl)sc(Cl)c1Nc1nc(Nc2ccc3c(c2)CCOC(=O)N3C)ncc1Cl` [Example 1774, 2,5-Dichloro-4-[5-chloro-2-(5-methyl-6-oxo-5,6,8,9-tetrahydro-7-oxa-5-aza-benzocyclohepten-2-ylamino)-pyrimidin-4-ylamino]-thiophene-3-carboxylic acid methylamide], the results for the IC50 in test [1] and in test [2] were 100 to 1000 nM and 1000 to 10000 nM, respectively.

Consider `CNC(=O)c1noc(C)c1Nc1nc(Nc2ccc3c(c2)CCOC(=O)N3C)ncc1Cl` [Example 1775, 4-[5-Chloro-2-(5-methyl-6-oxo-5,6,8,9-tetrahydro-7-oxa-5-aza-benzocyclohepten-2-ylamino)-pyrimidin-4-ylamino]-5-methyl-isoxazole-3-carboxylic acid methyl amide], for which the IC50 is 1000 to 10000 nM in test [1] and more than 10000 nM in test [2].

Consider `CNC(=O)c1cnn(C)c1Nc1nc(Nc2ccc3c(c2)CCOC(=O)N3C)ncc1Cl` [Example 1776, 5-[5-Chloro-2-(5-methyl-6-oxo-5,6,8,9-tetrahydro-7-oxa-5-aza-benzocyclohepten-2-ylamino)-pyrimidin-4-ylamino]-1-methyl-1H-pyrazole-4-carboxylic acid methylamide], for which the IC50 in test [1] fell in the range of 100 to 1000 nM; in test [2], 1000 to 10000 nM.

For `COCCOc1ccccc1Nc1nc(Nc2ccc3c(c2)CCOC(=O)N3C)ncc1Cl` [Example 1777, 2-{5-Chloro-4-[2-(2-methoxy-ethoxy)-phenylamino]-pyrimidin-2-ylamino}-5-methyl-8,9-dihydro-5H-7-oxa-5-aza-benzocyclohepten-6-one], the IC50 in test [1] and in test [2] was 100 to 1000 nM each time.

Turning to `COCCOc1cccc(F)c1Nc1nc(Nc2ccc3c(c2)CCOC(=O)N3C)ncc1Cl` [Example 1778, 2-{5-Chloro-4-[2-fluoro-6-(2-methoxy-ethoxy)-phenylamino]-pyrimidin-2-ylamino}-5-methyl-8,9-dihydro-5H-7-oxa-5-aza-benzocyclohepten-6-one], the IC50 in test [1] and in test [2] was 100 to 1000 nM in each case.

Consider `C#CCOc1cccc(F)c1Nc1nc(Nc2ccc3c(c2)CCOC(=O)N3C)ncc1Cl` [Example 1779, 2-[5-Chloro-4-(2-fluoro-6-prop-2-ynyloxy-phenylamino)-pyrimidin-2-ylamino]-5-methyl-8,9-dihydro-5H-7-oxa-5-aza-benzocyclohepten-6-one], for which the IC50 in test [1] and in test [2] was 100 to 1000 nM each time.

As for `C=CCOc1cccc(F)c1Nc1nc(Nc2ccc3c(c2)CCOC(=O)N3C)ncc1Cl` [Example 1780, 2-[4-(2-Allyloxy-6-fluoro-phenylamino)-5-chloro-pyrimidin-2-ylamino]-5-methyl-8,9-dihydro-5H-7-oxa-5-aza-benzocyclohepten-6-one], the IC50 in test [1] and in test [2] was less than 100 nM in each case.

Take `CN1C(=O)OCCc2cc(Nc3ncc(Cl)c(Nc4c(F)cccc4OCCN)n3)ccc21` [Example 1781, 2-{4-[2-(2-Amino-ethoxy)-6-fluoro-phenylamino]-5-chloro-pyrimidin-2-ylamino}-5-methyl-8,9-dihydro-5H-7-oxa-5-aza-benzocyclohepten-6-one]: the IC50 in test [1] and in test [2] was 1000 to 10000 nM throughout.

For the molecule `CC(=O)NCCOc1cccc(F)c1Nc1nc(Nc2ccc3c(c2)CCOC(=O)N3C)ncc1Cl` [Example 1782, N-(2-{2-[5-Chloro-2-(5-methyl-6-oxo-5,6,8,9-tetrahydro-7-oxa-5-aza-benzocyclohepten-2-ylamino)-pyrimidin-4-ylamino]-3-fluoro-phenoxy}-ethyl)-acetamide], the IC50 in test [1] and in test [2] was 1000 to 10000 nM throughout.

Regarding `CCNc1nnc(-c2ccccc2Nc2nc(Nc3ccc4c(c3)CCOC(=O)N4C)ncc2Cl)o1` [Example 1783, 2-{5-Chloro-4-[2-(5-ethylamino-[1,3,4]oxadiazol-2-yl)-phenylamino]-pyrimidin-2-ylamino}-5-methyl-8,9-dihydro-5H-7-oxa-5-aza-benzocyclohepten-6-one], the IC50 in test [1] was 100 to 1000 nM; in test [2], 1000 to 10000 nM.

Turning to `Cc1noc(-c2ccccc2Nc2nc(Nc3ccc4c(c3)CCOC(=O)N4C)ncc2Cl)n1` [Example 1784, 2-{5-Chloro-4-[2-(3-methyl-[1,2,4]oxadiazol-5-yl)-phenylamino]-pyrimidin-2-ylamino}-5-methyl-8,9-dihydro-5H-7-oxa-5-aza-benzocyclohepten-6-one], the IC50 in test [1] and in test [2] was 1000 to 10000 nM throughout.

Take `Cc1noc(-c2cccc(F)c2Nc2nc(Nc3ccc4c(c3)CCOC(=O)N4C)ncc2Cl)n1` [Example 1785, 2-{5-Chloro-4-[2-fluoro-6-(3-methyl-[1,2,4]oxadiazol-5-yl)-phenylamino]-pyrimidin-2-ylamino}-5-methyl-8,9-dihydro-5H-7-oxa-5-aza-benzocyclohepten-6-one]: the IC50 in test [1] fell in the range of 100 to 1000 nM; in test [2], 1000 to 10000 nM.

As for `Cc1nnc(-c2ccccc2Nc2nc(Nc3ccc4c(c3)CCOC(=O)N4C)ncc2Cl)o1` [Example 1786, 2-{5-Chloro-4-[2-(5-methyl-[1,3,4]oxadiazol-2-yl)-phenylamino]-pyrimidin-2-ylamino}-5-methyl-8,9-dihydro-5H-7-oxa-5-aza-benzocyclohepten-6-one], the IC50 in test [1] was less than 100 nM; in test [2], 100 to 1000 nM.

Turning to `Cc1nnc(-c2cccc(F)c2Nc2nc(Nc3ccc4c(c3)CCOC(=O)N4C)ncc2Cl)o1` [Example 1787, 2-{5-Chloro-4-[2-fluoro-6-(5-methyl-[1,3,4]oxadiazol-2-yl)-phenylamino]-pyrimidin-2-ylamino}-5-methyl-8,9-dihydro-5H-7-oxa-5-aza-benzocyclohepten-6-one], the IC50 in test [1] lay within 100 to 1000 nM; in test [2], 1000 to 10000 nM.

Consider `Cc1n[nH]c(-c2ccccc2Nc2nc(Nc3ccc4c(c3)CCOC(=O)N4C)ncc2Cl)n1` [Example 1788, 2-{5-Chloro-4-[2-(5-methyl-2H-[1,2,4]triazol-3-yl)-phenylamino]-pyrimidin-2-ylamino}-5-methyl-8,9-dihydro-5H-7-oxa-5-aza-benzocyclohepten-6-one], for which the IC50 in test [1] and in test [2] was less than 100 nM throughout.

On to `Cc1cnc(-c2cccc(F)c2Nc2nc(Nc3ccc4c(c3)CCOC(=O)N4C)ncc2Cl)o1` [Example 1789, 2-{5-Chloro-4-[2-fluoro-6-(5-methyl-oxazol-2-yl)-phenylamino]-pyrimidin-2-ylamino}-5-methyl-8,9-dihydro-5H-7-oxa-5-aza-benzocyclohepten-6-one], for which the IC50 in test [1] and in test [2] was 100 to 1000 nM throughout.

For the molecule `Cc1cnc(-c2sccc2Nc2nc(Nc3ccc4c(c3)CCOC(=O)N4C)ncc2Cl)o1` [Example 1790, 2-{5-Chloro-4-[2-(5-methyl-oxazol-2-yl)-thiophen-3-ylamino]-pyrimidin-2-ylamino}-5-methyl-8,9-dihydro-5H-7-oxa-5-aza-benzocyclohepten-6-one], the IC50 in test [1] and in test [2] was 100 to 1000 nM throughout.

Regarding `CNCc1ccccc1Nc1nc(Nc2ccc3c(c2)CCOC(=O)N3C)ncc1Cl` [Example 1791, 2-[5-Chloro-4-(2-methylaminomethyl-phenylamino)-pyrimidin-2-ylamino]-5-methyl-8,9-dihydro-5H-7-oxa-5-aza-benzocyclohepten-6-one], the IC50 in test [1] and in test [2] was 1000 to 10000 nM throughout.

`CC(=O)N(C)Cc1ccccc1Nc1nc(Nc2ccc3c(c2)CCOC(=O)N3C)ncc1Cl` [Example 1792, N-{2-[5-Chloro-2-(5-methyl-6-oxo-5,6,8,9-tetrahydro-7-oxa-5-aza-benzocyclohepten-2-ylamino)-pyrimidin-4-ylamino]-benzyl}-N-methyl-acetamide]: the IC50 in test [1] and in test [2] was 1000 to 10000 nM throughout.
